Measured values: patent publication US20130109721A1, “FAAH Inhibitors” (Ironwood Pharmaceuticals, Inc., priority 2009, published 2013)

Molecular target: T1, FAAH (Rattus norvegicus, UniProt P97612)
T1 construct: For assay of FAAH activity in rat brain membrane (RBM) homogenates; tissue Charles River; host or cells: rat (CD strain) brain membrane homogenate
T1 sequence (P97612 1-579): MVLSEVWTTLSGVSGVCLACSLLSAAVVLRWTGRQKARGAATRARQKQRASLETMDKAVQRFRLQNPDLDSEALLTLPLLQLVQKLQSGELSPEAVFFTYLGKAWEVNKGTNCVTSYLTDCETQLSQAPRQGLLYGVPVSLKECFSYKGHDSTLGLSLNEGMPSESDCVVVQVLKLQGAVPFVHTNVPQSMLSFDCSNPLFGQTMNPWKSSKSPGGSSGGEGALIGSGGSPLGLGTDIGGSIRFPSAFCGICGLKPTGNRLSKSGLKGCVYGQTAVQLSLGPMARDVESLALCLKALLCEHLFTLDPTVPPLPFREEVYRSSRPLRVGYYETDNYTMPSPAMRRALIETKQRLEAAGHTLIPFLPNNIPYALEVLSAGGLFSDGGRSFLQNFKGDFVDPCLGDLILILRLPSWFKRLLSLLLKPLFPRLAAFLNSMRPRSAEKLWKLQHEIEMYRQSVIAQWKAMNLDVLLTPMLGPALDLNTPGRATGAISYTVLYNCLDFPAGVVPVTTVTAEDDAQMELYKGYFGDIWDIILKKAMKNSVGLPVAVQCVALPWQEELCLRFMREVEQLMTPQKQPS
Test: FAAH inhibition, rat brain membrane homogenate assay
Type: biochemical
Conditions: average; FAAH extracted from rat brain homogenate; read-out: Rat Brian Extract IC50
Method: Adult rats (Charles River CD strain, female, 200 g) were anaesthetized with isofluorane and rapidly decapitated. Each brain was quickly removed and chilled in tubes (3 brains per tube) on ice. About 25 mL of “homogenization buffer” (20 mM HEPES buffer, pH 7.0, with 1 mM MgCl2) was added to 15 to 20 g of brain. The brains were homogenized on ice for 1 minute using an Omni GLH homogenizer (Omni International, Marietta, Ga.). The homogenates were then transferred to three centrifuge tubes and centrifuged at 36,500 g for 20 minutes at 4° C. The supernatant was discarded and each pellet was re-suspended in 25 mL homogenization buffer. The re-suspended material was again centrifuged (36,500 g, 20 minutes at 4° C.). Pellets were combined by resuspension in 10 mL of homogenization buffer and incubated in a 37° C. water bath for 15 minutes. The tubes were then placed on ice for 5 minutes followed by centrifugation at 36,500 g for 20 minutes at 4° C. The supernatant was discarded and the membrane pellets were then re-suspended in 40 mL of “resuspension buffer” (50 mM Tris-HCl buffer, pH 7.4, containing 1 mM EDTA and 3 mM MgCl2). A Bradford Protein assay was performed to determine protein concentration. The protein was aliquotted into screw cap Cryo tubes each containing ˜400 μL, flash frozen in liquid nitrogen and stored at −80° C. until used for the assay. A similar protocol was used to obtain brain membrane homogenates from mice.
FAAH activity was assayed in the respective homogenates described herein (Rat brain, Mouse brain or Human brain) for certain exemplary substrate compounds using a modification of the method of Omeir et al. (1995 Life Sci 56:1999) and Fowler et al. (1997 J. Pharmacol Exp Ther 283:729). For assay of FAAH activity in rat brain membrane (RBM) homogenates, RBM homogenates (7 μg protein in 20 μL final volume of 10 mM Tris pH 6.5) were mixed with 180 μL of a mixture of the following: 2.0 μM unlabelled anandamide, 0.03 μCi radio labeled anandamide [ethanolamine 1-^3H] (40-60 Cis/mmol, product number ART-626, American Radiolabeled Chemicals, St. Louis, Mo.), 1 mg/mL Bovine Serum Albumin (fatty acid-free BSA, electrophoresis grade, Sigma, St. Louis, Mo.), 10 mM Tris-HCl (pH 6.5), and 1 mM EDTA in the presence and absence of test compounds (vehicle was DMSO at a final concentration of 1%) and incubated for 10 minutes at 37° C. Samples were placed on ice to terminate the reactions.
^3H-ethanolamine product and un-reacted ^3H-anandamide substrate were then separated either: (1) by using chloroform/methanol extraction or (2) by passing the reaction mixture through a glass fiber filter containing activated charcoal. Samples were extracted with chloroform/methanol by adding 0.4 mL of chloroform/methanol (1:1 v/v), vigorously mixing the samples, and separating the aqueous and organic phases by centrifugation. Radioactivity (corresponding to FAAH-catalyzed breakdown of ^3H-anandamide) found in aliquots (0.2 mL) of the aqueous phase was determined by liquid scintillation counting with quench correction. IC50 values were determined as described by Jonsson et al. (2001 Br. J. Pharmacol. 133:1263). Alternatively, reactions were purified using a modification of the solid-phase extraction method described by Wilson et al (2003 Anal. Biochem. 318:270). This method was modified as follows: after reactions were incubated at 37° C. for 10 minutes and chilled on ice, the reaction mixtures were acidified by adding 10 μL of sodium phosphate solution [0.5M (pH 2.0)]. Next, 90 μL aliquots of the acidified reaction mixtures were applied to activated charcoal (that had been previously washed with methanol as described by Wilson et al. (supra)) containing 80 μL of water on top of a glass fiber filter, centrifuged, and the radioactivity in the eluate was counted as described previously by Wilson et al. (supra). […]

`Cc1c(C(=O)C(=O)Nc2cccc(Cl)c2)c2c(n1Cc1ccc(Cl)cc1)CCCC2` [Compound I-16, 2-(1-(4-chlorobenzyl)-2-methyl-4,5,6,7-tetrahydro-1H-indol-3-yl)-N-(3-chlorophenyl)-2-oxoacetamide] gave an IC50 of 4 nM.

`COc1cc(NC(=O)C(=O)c2c3c(n(Cc4ccc(Cl)cc4)c2C)CCCC3)ccn1` [Compound I-18, 2-(1-(4-chlorobenzyl)-2-methyl-4,5,6,7-tetrahydro-1H-indol-3-yl)-N-(2-methoxypyridin-4-yl)-2-oxoacetamide] was tested, and the IC50 was 1440 nM.

Compound `COc1cc(NC(=O)C(=O)c2c(-c3ccccc3)c(C)n(Cc3ccc(Cl)cc3)c2C)ccn1` [Compound I-19, 2-(1-(4-chlorobenzyl)-2,5-dimethyl-4-phenyl-1H-pyrrol-3-yl)-N-(2-methoxypyridin-4-yl)-2-oxoacetamide] has an IC50 of 5 nM.

`Cc1c(C(=O)C(=O)Nc2cccc(Cl)c2)c(-c2ccccc2)c(C)n1Cc1ccc(Cl)cc1` [Compound I-20, 2-(1-(4-chlorobenzyl)-2,5-dimethyl-4-phenyl-1H-pyrrol-3-yl)-N-(3-chlorophenyl)-2-oxoacetamide] was tested, and the IC50 was 1040 nM.

Work on `COc1cc(NC(=O)C(=O)c2cc(C)n(Cc3ccc(Cl)cc3Cl)c2C)ccn1` [Compound I-21, 2-(1-(2,4-dichlorobenzyl)-2,5-dimethyl-1H-pyrrol-3-yl)-N-(2-methoxypyridin-4-yl)-2-oxoacetamide] yielded an IC50 of 1 nM.

Work on `COc1ccc(Cn2c(C)cc(C(=O)C(=O)Nc3ccnc(OC)c3)c2C)cc1` [Compound I-22, 2-(1-(4-methoxybenzyl)-2,5-dimethyl-1H-pyrrol-3-yl)-N-(2-methoxypyridin-4-yl)-2-oxoacetamide] yielded an IC50 of 1770 nM.

`COc1cc(NC(=O)C(=O)c2cc(C)n(Cc3ccc(Cl)cc3)c2-c2ccccc2)ccn1` [Compound I-23, 2-(1-(4-chlorobenzyl)-5-methyl-2-phenyl-1H-pyrrol-3-yl)-N-(2-methoxypyridin-4-yl)-2-oxoacetamide] showed an IC50 of 185 nM.

In the case of `Cc1cc(C(=O)C(=O)Nc2cccc(Cl)c2)c(-c2ccccc2)n1Cc1ccc(Cl)cc1` [Compound I-24, 2-(1-(4-chlorobenzyl)-5-methyl-2-phenyl-1H-pyrrol-3-yl)-N-(3-chlorophenyl)-2-oxoacetamide], the IC50 is reported as > 5000 nM.

In the case of `Cc1c(C(=O)C(=O)Nc2cccc(Cl)c2)cc(-c2ccccc2)n1Cc1ccc(Cl)cc1` [Compound I-25, 2-(1-(4-chlorobenzyl)-2-methyl-5-phenyl-1H-pyrrol-3-yl)-N-(3-chlorophenyl)-2-oxoacetamide], the IC50 is reported as 28 nM.

`Cc1c(C(=O)C(=O)Nc2ccncc2)cc(-c2ccccc2)n1Cc1ccc(Cl)cc1` [Compound I-26, 2-(1-(4-chlorobenzyl)-2-methyl-5-phenyl-1H-pyrrol-3-yl)-2-oxo-N-(pyridin-4-yl)acetamide] was tested, and the IC50 was > 5000 nM.
